The values below come from publication PMC5464344, “Analgesic and anti‐inflammatory properties of novel, selective, and potent EP4 receptor antagonists” (Pharmacology Research & Perspectives, 2017).

Molecules are shown by their SMILES.

The target in one assay is T1, Rat EP4 (Rattus norvegicus, UniProt P43114).
T1 construct: expressed in transfected cells
The assay is described as follows: EP4 cAMP antagonist assay (HTRF), rat EP4. Format: cell-based. To be noted: read-out: cAMP Antagonism Rat EP4 IC50. Here is the method: Human EP4 (GenBank Accession # AY429109, Clone ID PER0400000, UMR cDNA Resource Center, Rolla, MO) was stably expressed in HEK293 cells. Rat EP4 cDNA (GenBank Accession# NM_03276) was cloned into pcDNA 3.1 vector and stably transfected into HEK293 cells. The cell lines were maintained in DMEM (invitrogen) supplemented with 10% fetal bovine serum (FBS), 1 mmol/L sodium pyruvate, 10 mmol/L HEPES, 500 μg/mL geneticin and 2 mmol/L L‐glutamine. Confluent cultures were grown at 37°C in an atmosphere containing 5% CO2. Cells were harvested using 0.25% Trypsin‐ EDTA, suspended in freeze media at a density of 10^7cel1s/mL, and aliquots were stored in liquid nitrogen. Immediately prior to the assay, cells were thawed with DMEM and suspended in cAMP assay buffer (HBSS with 0.1% BSA, 20 mmol/L HEPES and 200 μmol/L IBMX).
CJ‐023,423 served as the positive control. To measure the cAMP levels, cAMP‐d2 conjugate and anti cAMP‐cryptate conjugate in lysis buffer were incubated with the treated cells at room temperature for 1 h. The HTRF signal was detected using an EnVision plate reader (Perkin‐Elmer, Inc., Waltham, MA, USA.) to calculate the ratio of fluorescence at 665 to 620 nm. The raw data were converted to cAMP (nmol/L) using a cAMP standard curve generated for each experiment. Data were analyzed using a 4‐parameter nonlinear logistic equation. Results are expressed as the geometric mean ± standard deviation or geometric mean ± standard error as noted.
(Time-resolved FRET reads energy transfer from a long-lived donor to a nearby acceptor.)

Assay [1] deals with PGE2 Inhibited TNFα in human whole blood. Put plainly: Human whole blood assay (Reversal of PGE2 Inhibited TNFα). Format: cell-based. Conditions: for times more potent than reference EP4 antagonists (whole blood assay): PGE2 mediated TNF-α. Here is the method: Blood was collected from normal volunteer donors into sodium heparin vacutainer tubes. Donors had not taken glucocorticoids within 2 weeks of the donation. […] The plates were incubated for 20–24 h at 37 °C, 5% CO2, in a humidified atmosphere. […] Plasma was removed from the cell layer and was transferred to v‐bottom polypropylene plates. […] The plates were read at A450‐A650 on a plate reader (Molecular Devices Versamax) using SOFTmaxPRO (v. 4.3.I) software. IC50s were calculated using Graphpad Prism (v. 4) nonlinear regression, sigmoidal dose response curve fitting. Results are expressed as the geometric mean ± SD.

Another assay concerns the target T2, human EP3 receptor (Homo sapiens, UniProt P43115).
T2 sequence (P43115 1-359 limits assumed): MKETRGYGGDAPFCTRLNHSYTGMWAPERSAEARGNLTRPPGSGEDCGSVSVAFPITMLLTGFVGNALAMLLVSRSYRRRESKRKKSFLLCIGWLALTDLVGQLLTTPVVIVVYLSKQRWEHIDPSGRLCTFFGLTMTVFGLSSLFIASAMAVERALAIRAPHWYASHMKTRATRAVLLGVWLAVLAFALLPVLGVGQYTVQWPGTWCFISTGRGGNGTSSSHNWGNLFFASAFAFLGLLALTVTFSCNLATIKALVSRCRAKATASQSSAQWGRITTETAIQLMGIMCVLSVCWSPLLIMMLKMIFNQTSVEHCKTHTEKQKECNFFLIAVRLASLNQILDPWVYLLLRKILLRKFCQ
Put plainly: [3H]-PGE2 receptor binding assay, EP3 membranes. Conditions: HEK293 membranes, geometric mean ± SEM, read-out: hEP1-4 receptor binding EP3 Ki. As to the method:
(§1) Receptor binding assays were done using membrane preparations of HEK 293 cells transfected with various prostanoid receptors using previously published procedure (Nakao et al. 2007). EP1 and EP4 membranes were prepared from recombinant HEK293 cells stably expressing human EPl receptor (GenBank Accession # AY275470, Clone ID PER0100000, UMR cDNA Resource Center, Rolla, MO) or human EP4 receptor. EP2 and EP3 membranes were prepared from HEK293 cells transiently transfected with human EP2 receptor (GenBank Accession # AY275471, Clone ID PER0200000, UMR cDNA Resource Center, Rolla, MO) or human EP3 receptor (GenBank Accession # AY429108, Clone ID PER3VI0000, UMR cDNA Resource Center, Rolla, MO) plasmids. Frozen cell pellets were homogenized in homogenization buffer (10 mmol/L Tris‐HCl, pH7.4, 250 mmol/L sucrose, 1 mmol/L EDTA, 0.3 mmol/L indomethacin and protease inhibitor cocktail with EDTA (Roche Molecular Biochemicals, catalog # 1691498)) using a Teflon/glass homogenizer. After a low speed centrifugation (200g for 15 min at 4°C) the supernatant was subjected to high speed centrifugation (30,000g for 60 min at 4°C). Membrane protein preparation was aliquoted and quick frozen on dry ice prior to storage at −80°C. […] Compounds were tested in a 96‐well format using a three‐fold dilution series to generate 10‐point curves. […] The binding reaction was performed in 200 μL MES buffer (10 mmol/L MES, pH 6.0, 10 mmol/L MgCl2, and l mmol/L EDTA) using polystyrene 96‐well plates. […] The membranes were harvested by filtration (TomTek harvester), washed four times with cold buffer (10 mmol/L MES, pH 6.0, 10 mmol/L MgCl2), dried in a 60°C oven, and the radioactivity was quantified as counts per min (CPM) using a TopCount detector. […] Data were analyzed using a 4‐parameter nonlinear logistic equation. K i Conversion from IC50 Values (K i = […] where [L] is the ligand concentration). Results are expressed as the geometric mean ± standard deviation or geometric mean ± standard error as noted.

For a further assay, the target named is Human EP4 (Homo sapiens, UniProt P35408). The assay is described as follows: [3H]-PGE2 receptor binding assay, EP4 membranes. Further details: expressed in transfected cells; membrane preparation. To be noted: HEK293 membranes, geometric mean ± SEM, read-out: hEP1-4 receptor binding EP4 Ki. Here is the method: as §1
Human EP4, sequence (P35408 whole entry): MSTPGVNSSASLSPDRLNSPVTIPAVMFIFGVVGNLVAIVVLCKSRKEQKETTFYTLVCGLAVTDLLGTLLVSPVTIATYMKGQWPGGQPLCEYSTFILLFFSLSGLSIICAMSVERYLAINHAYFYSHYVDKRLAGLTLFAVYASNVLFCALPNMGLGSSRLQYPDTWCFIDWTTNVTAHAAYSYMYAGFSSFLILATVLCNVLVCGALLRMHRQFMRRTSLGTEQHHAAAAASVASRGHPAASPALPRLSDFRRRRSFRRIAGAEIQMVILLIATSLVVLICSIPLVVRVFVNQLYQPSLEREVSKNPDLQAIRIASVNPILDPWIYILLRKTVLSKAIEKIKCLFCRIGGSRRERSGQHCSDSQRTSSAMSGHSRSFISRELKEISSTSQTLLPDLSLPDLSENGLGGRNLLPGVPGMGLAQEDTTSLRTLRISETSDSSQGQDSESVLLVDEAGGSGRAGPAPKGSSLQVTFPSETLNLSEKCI

T1 sequence (P43114 whole entry): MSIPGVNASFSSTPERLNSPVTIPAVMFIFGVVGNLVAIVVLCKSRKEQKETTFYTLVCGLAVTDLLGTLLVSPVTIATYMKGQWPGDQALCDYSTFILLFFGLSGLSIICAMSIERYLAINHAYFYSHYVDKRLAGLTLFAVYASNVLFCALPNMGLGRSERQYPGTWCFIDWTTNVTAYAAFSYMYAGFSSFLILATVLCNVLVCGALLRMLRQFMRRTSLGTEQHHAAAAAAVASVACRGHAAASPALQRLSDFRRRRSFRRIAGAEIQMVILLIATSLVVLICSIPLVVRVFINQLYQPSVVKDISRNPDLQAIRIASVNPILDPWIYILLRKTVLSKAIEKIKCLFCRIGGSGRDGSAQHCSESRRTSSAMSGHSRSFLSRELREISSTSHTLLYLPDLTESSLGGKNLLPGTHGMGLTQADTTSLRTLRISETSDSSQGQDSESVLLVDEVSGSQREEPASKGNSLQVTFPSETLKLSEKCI

Turning to `C[C@H](NC(=O)[C@H]1CCCCN1CCOc1ccccc1)c1ccc(C(=O)O)cc1` [Compound 2], the IC50 at Rat EP4 came out at 15.4 nM. For the same molecule, the “times more potent than reference EP4 antagonists (whole blood assay)” value in assay [1] (human whole blood) is recorded as 5–10 times. The inhibition constant Ki at human EP3 receptor is over 14000 nM.

`Cc1ccc(N2CCC(O)CC2)nc1C(=O)Nc1c(C)cc(C(=O)O)cc1C` [Compound 1]: the IC50 was determined as 12.3 nM at Rat EP4 and 123 ± 80 nM in assay [1] (read-out: Human whole blood (Reversal of PGE2 Inhibited TNFα) IC50, 10 μg/ml LPS + 10 nmol/L PGE2, 20–24 h, geometric mean ± SD). The “times more potent than reference EP4 antagonists (whole blood assay)” value in assay [1] (human whole blood) is listed as 5–10 times. Further, the Ki on Human EP4 came to 58 ± 12 nM.

As to `C[C@H](NC(=O)c1cc(Cl)ccc1Oc1ccc(F)cc1)c1ccc(C(=O)O)cc1` [CJ‐042,794, reference compound], the IC50 on Rat EP4 was found to be 20.6 ± 1.8 nM. Further, in assay [1] (human whole blood, various concentrations (Fig. 5A)), the “reversal of PGE2 suppression of LPS stimulated TNF‐α production” value was “reversed”. Besides, the Ki on Human EP4 is 12.6 ± 7.36 nM; on human EP3 receptor, over 15500 nM.

For `Cc1ccc(-c2cccc(CO)c2)nc1C(=O)Nc1c(C)ccc(C(=O)O)c1C` [Compound 3], the IC50 on Rat EP4 is 1 nM. In addition, the Ki at Human EP4 is 2.07 ± 1.31 nM; at human EP3 receptor it was over 14000 nM.

The IC50 is the point on the concentration scale where inhibition reaches its midpoint. A word on the Ki: it is the dissociation constant of the complex between target and ligand, obtained from inhibition or displacement.
